Values after ≈ are worked out from the molar mass of the structure shown. Read-outs that look alike come from different tables or passages of the source.
Experiments:
[1] = DPPH free radical scavenging assay; format: biochemical; settings: concentration of 20µg/l, mean ± SD of three experiments
Protocol: Antioxidant activity of the newly synthesized 13a–i, 14a–i, 11a–c and 12a–c were assessed in terms of hydrogen-donating or radical-scavenging ability via the stable free radical 1,1-diphenyl-2-picrylhydrazyl (DPPH) using ascorbic acid as a reference at a concentration of […].
The free radical scavenging activity (RSA) was assessed spectrophotometically at 517 nm via decoloration of the solution of the DPPH (1,1-diphenyl-2-picrylhydrazyl) radical according to Brand-Williams et al. 1995 [32]. DPPH solution was prepared by dissolving of 20 mg of DPPH in one liter of dimethylsulphoxide (DMSO). A freshly prepared DPPH solution was used for the assay. Each of the tested compounds 11a–c, 12a–c, 13a–i, 14a–i and 15a,b were dissolved in DMSO (1mg/mL). A volume of […] of a DMSO stock solution of the test compounds was added to 2 mL of freshly prepared DPPH in DMSO solution. The mixtures were shaken in a vortex (2500 rpm) for 1 min and then left to stand for 15, 30, 45 and 60 min in the dark room. The absorbance was measured at 517 nm against blank using UV visible spectrophotometer 2401 PC (Shimadzu, Kyoto, Japan). Lower absorbance of the reaction mixture indicated higher free radical scavenging activity was analyzed from the graph plots of the inhibition percentage against the compound concentration. The experiment was carried out in triplicate and averaged. The scavenging activity was calculated according to the following formula:Scavenging ability (%) = (A517 of control - A517of sample / A 517 of control) ×100(1)

[2] = test system: HCT-116 (human colon cancer); experiment: MTT cytotoxicity assay, HCT-116; format: cell-based; settings: for inhibition at 100 µg/mL / IC50: Homo sapiens; for inhibition at 100 µg/mL: HCT-116, 100 µg/ml, 48 h, read-out: Growth Inhibition (%) HCT-116; for IC50: HCT-116, 48 h
[3] = test system: HepG-2 (human liver cancer); experiment: MTT cytotoxicity assay, HepG-2; format: cell-based; settings: for inhibition at 100 µg/mL: HepG2, 100 µg/ml, 48 h, read-out: Growth Inhibition (%) HepG-2; for IC50: HepG2, 48 h post-treatment
[4] = test system: MCF-7 (human breast cancer); experiment: MTT cytotoxicity assay, MCF-7; format: cell-based; settings: for inhibition at 100 µg/mL: MCF7, 100 µg/ml, 48 h, read-out: Growth Inhibition (%) MCF-7; for IC50: MCF7, 48 h post-treatment
[5] = test system: normal skin fibroblast cells (BJ-1); experiment: MTT cytotoxicity assay, normal skin fibroblast BJ-1; format: cell-based; settings: Homo sapiens, 48 h, read-out: Growth Inhibition (%) BJ-1
[6] = 15 min, read-out: Scavenging Activity (%) on DPPH radicals at 15 min
[7] = 30 min, read-out: Scavenging Activity (%) on DPPH radicals at 30 min
[8] = 45 min, read-out: Scavenging Activity (%) on DPPH radicals at 45 min
[9] = 60 min, read-out: Scavenging Activity (%) on DPPH radicals at 60 min

| SMILES | melting point | inhibition [1, 6] | inhibition [1, 7] | inhibition [1, 8] | inhibition [1, 9] | inhibition at 100 µg/mL [2] | IC50 ([2]; 48 h post-treatment) | inhibition at 100 µg/mL [3] | IC50 [3] | inhibition at 100 µg/mL [4] | IC50 [4] | inhibition at 100 µg/mL [5] | IC50 HCT-116 ([2]; 48 h post-treatment) |
| --- | --- | --- | --- | --- | --- | --- | --- | --- | --- | --- | --- | --- | --- |
| O=C1O[C@H]([C@@H](O)CO)C(O)=C1O [Ascorbic acid, ascorbic acid, reference compound] |  | 94.4 ± 1.74% | 97.5 ± 1.32% | 98.78 ± 0.94% | 99.67 ± 0.28% |  |  |  |  |  |  |  |  |
| O=C(c1ccccc1)n1cc(C2=NNC3(C2)C(=O)Nc2ccccc23)c2ccccc21 (centres unmarked) [Compound 13d, 5’-(N-Benzoyl-1H-indol-3-yl)-2’,4’-dihydrospiro(indoline-3,3’-pyrazol)-2-one] | 307 to 309 °C | 19.3 ± 1.24% | 31.3 ± 1.81% | 25.9 ± 1.24% | 39.7 ± 1.99% | 94.6% | 26.9 µg/mL (≈ 66.2 µM) | 82.7% | 60.9 µg/mL (≈ 150 µM) | 96.4% | 25.4 µg/mL (≈ 62.5 µM) | 7% |  |
| O=C(c1ccccc1Cl)n1cc(C2=NNC3(C2)C(=O)Nc2ccccc23)c2ccccc21 (centres unmarked) [Compound 13e, 5’-(N-(2-Chloro-benzoyl)-1H-indol-3-yl)-2’,4’-dihydrospiro(indoline-3,3’-pyrazol)-2-one] | 219 to 221 °C | 9.1 ± 1.38% | 26.1 ± 1.26% | 36.7 ± 1.62% | 48.1 ± 1.82% | 90.4% | 35.4 µg/mL (≈ 80.3 µM) | 79.8% | 67.1 µg/mL (≈ 152 µM) | 96.4% | 31.9 µg/mL (≈ 72.4 µM) | 10.3% |  |
| O=C(c1ccc(Cl)cc1)n1cc(C2=NNC3(C2)C(=O)Nc2ccccc23)c2ccccc21 (centres unmarked) [Compound 13f, 5’-(N-(4-Chloro-benzoyl)-1H-indol-3-yl)-2’,4’-dihydrospiro(indoline-3,3’-pyrazol)-2-one] | 202 to 204 °C | 17.9 ± 1.62% | 28.3 ± 1.61% | 34.3 ± 1.27% | 40.7 ± 1.54% | 86.5% | 28.4 µg/mL (≈ 64.4 µM) | 72.8% | 83.6 µg/mL (≈ 190 µM) | 79.7% | 32.1 µg/mL (≈ 72.8 µM) | 16.4% |  |
| O=C1Nc2ccccc2C12CC(c1cn(S(=O)(=O)c3ccccc3[N+](=O)[O-])c3ccccc13)=NN2 (centres unmarked) [Compound 13i, 5’-(N-(2-Nitro-benzensulfonyl)-1H-indol-3-yl)-2’,4’-dihydrospiro (indoline-3,3’-pyrazol)-2-one] | 210 to 212 °C |  |  |  |  | 97.7% |  | 96.8% |  | 97.8% |  | 69.4% |  |
| O=C1Nc2ccccc2C12CC(c1c[nH]c3ccccc13)=NN2c1ccccc1 (centres unmarked) [Compound 14a, 5’-(1H-Indol-3-yl)-2’-phenyl-2’,4’-dihydrospiro(indoline-3,3’-pyrazol)-2-one] | 124 to 126 °C | 41.1 ± 2.05% | 51.5 ± 1.91% | 54 ± 2.06% | 59.2 ± 2.14% | 91.2% | 36.2 µg/mL (≈ 95.7 µM) |  |  | 90.4% | 32.3 µg/mL (≈ 85.4 µM) | 14.2% |  |
| CCn1cc(C2=NN(c3ccccc3)C3(C2)C(=O)Nc2ccccc23)c2ccccc21 (centres unmarked) [Compound 14b, 5’-(N-Ethyl-1H-indol-3-yl)-2’-phenyl-2’,4’-dihydrospiro(indoline-3,3’-pyrazol)-2-one] | 108 to 110 °C | 42.4 ± 1.45% | 58.1 ± 1.28% | 60.3 ± 1.66% | 66 ± 1.64% | 84.6% | 40.1 µg/mL (≈ 98.6 µM) |  |  | 80.3% | 36.3 µg/mL (≈ 89.3 µM) | 8.1% |  |
| O=C1Nc2ccccc2C12CC(c1cn(Cc3ccccc3)c3ccccc13)=NN2c1ccccc1 (centres unmarked) [Compound 14c, 5’-(N-Benzyl-1H-indol-3-yl)-2’-phenyl-2’,4’-dihydrospiro(indoline-3,3’-pyrazol)-2-one] | 96 to 98 °C | 14.8 ± 1.36% | 22.6 ± 1.79% | 26.3 ± 1.23% | 39.5 ± 1.61% | 91.8% | 40.5 µg/mL (≈ 86.4 µM) |  |  | 92.3% | 32.5 µg/mL (≈ 69.4 µM) | 13.6% |  |
| O=C(c1ccc(Cl)cc1)n1cc(C2=NN(c3ccccc3)C3(C2)C(=O)Nc2ccccc23)c2ccccc21 (centres unmarked) [Compound 14f, 5’-(N-(4-Chlorobenzoyl)-1H-indol-3-yl)-2’-phenyl-2’,4’-dihydrospiro(indoline-3,3’-pyrazol)-2-one] | 162 to 164 °C | 9.05 ± 1.63% | 10.2 ± 1.83% | 16.2 ± 1.21% | 22.9 ± 1.62% | 91.4% | 35.8 µg/mL (≈ 69.2 µM) |  |  | 89.3% | 31.2 µg/mL (≈ 60.3 µM) | 14.5% |  |
| COc1cccc2c1C(=O)c1c(O)c3c(c(O)c1C2=O)C[C@@](O)(C(=O)CO)C[C@@H]3O[C@H]1C[C@H](N)[C@H](O)[C@H](C)O1 [Doxorubicin, doxorubicin, reference compound] |  |  |  |  |  | 100% | 21.6 µg/mL (≈ 39.7 µM) | 100% | 21.6 µg/mL (≈ 39.7 µM) | 96.8% | 37.6 µg/mL (≈ 69.2 µM) | 0% | 26.1 µg/mL (≈ 48 µM) |

Second part, led by results:

| melting point | SMILES | inhibition [1, 6] | inhibition [1, 7] | inhibition [1, 8] | inhibition [1, 9] | inhibition at 100 µg/mL [2] | IC50 ([2]; 48 h post-treatment) | inhibition at 100 µg/mL [3] | IC50 [3] | inhibition at 100 µg/mL [4] | IC50 [4] | inhibition at 100 µg/mL [5] | IC50 HCT-116 ([2]; 48 h post-treatment) |
| --- | --- | --- | --- | --- | --- | --- | --- | --- | --- | --- | --- | --- | --- |
| 100 to 102 °C | O=C(c1ccccc1)n1cc(C2=NN(c3ccccc3)C3(C2)C(=O)Nc2ccccc23)c2ccccc21 (centres unmarked) [Compound 14d, 5’-(N-Benzoyl-1H-indol-3-yl)-2’-phenyl-2’,4’-dihydrospiro(indoline-3,3’-pyrazol)-2-one] | 39.9 ± 1.75% | 41.8 ± 1.49% | 45 ± 1.37% | 55.4 ± 1.33% | 96.2% | 30.7 µg/mL (≈ 63.6 µM) |  |  | 94% | 31.6 µg/mL (≈ 65.5 µM) | 9.5% |  |
| 78 to 80 °C | O=C(c1ccccc1Cl)n1cc(C2=NN(c3ccccc3)C3(C2)C(=O)Nc2ccccc23)c2ccccc21 (centres unmarked) [Compound 14e, 5’-(N-(2-Chlorobenzoyl)-1H-indol-3-yl)-2’-phenyl-2’,4’-dihydrospiro(indoline-3,3’-pyrazol)-2-one] | 17.9 ± 1.23% | 28.2 ± 1.27% | 30.9 ± 1.98% | 34.9 ± 1.72% | 35.1% |  |  |  | 85.3% | 54 µg/mL (≈ 104 µM) | 16.6% |  |
| 132 to 134 °C | O=C1Nc2ccccc2C12CC(c1cn(S(=O)(=O)c3ccc(Br)cc3)c3ccccc13)=NN2c1ccccc1 (centres unmarked) [Compound 14g, 5’-(N-(4-Bromo-benzenesulfonyl)-1H-indol-3-yl)-2’-phenyl-2’,4’-dihydrospiro(indoline-3,3’-pyrazol)-2-one] | 8.39 ± 1.14% | 11.9 ± 1.23% | 14.1 ± 2.01% | 26.6 ± 2.13% | 92.1% | 38 µg/mL (≈ 63.6 µM) |  |  | 90.6% | 37.4 µg/mL (≈ 62.6 µM) | 16% |  |
| 110 to 112 °C | O=C1Nc2ccccc2C12CC(c1cn(S(=O)(=O)c3ccc(Cl)cc3)c3ccccc13)=NN2c1ccccc1 (centres unmarked) [Compound 14h, 5’-(N-(4-Chloro-benzenesulfonyl)-1H-indol-3-yl)-2’-phenyl-2’,4’-dihydrospiro(indoline-3,3’-pyrazol)-2-one] | 57.9 ± 1.36% | 67.3 ± 1.35% | 72 ± 1.82% | 86 ± 2.17% | 96.2% |  |  |  | 94% |  | 86.5% |  |
| 152 to 154 °C | O=C1Nc2ccccc2C12CC(c1cn(S(=O)(=O)c3ccccc3[N+](=O)[O-])c3ccccc13)=NN2c1ccccc1 (centres unmarked) [Compound 14i, 5’-(N-(2-Nitro-benzenesulfonyl)-1H-indol-3-yl)-2’-phenyl-2’,4’-dihydrospiro(indoline-3,3’-pyrazol)-2-one] |  |  |  |  | 35.1% |  |  |  | 52.3% |  | 78.6% |  |

Reference: publication PMC7179167 (Molecules, 2020)
